# Laboratory results from US4795814A, “Process for preparing novel dihydropyridine derivatives” (Otsuka Pharmaceutical Co., Ltd., priority 1984, dated 1989).
# Like-named read-outs stand apart in the source and are kept apart here.
# Legend:
# [1] = molecular target: T1, Calmodulin-cyclic-AMP phosphodiesterase (Bos taurus, UniProt P14100+P62157); experiment: Pharmacological Test-2 (1): Calmodulin-cyclic-AMP phosphodiesterase inhibitory activity (with calmodulin, CaCl2); type: biochemical, bovine; conditions: in the presence of calmodulin, CaCl2, pH 7.0, 30° C., 30 minutes
# T1 construct: An enzyme substance isolated from the heart of bovine and purified partially; which was isolated from the brain of bovine, and purified so as to be considered as a single substance; from tissue; host or cells: bovine heart (phosphodiesterase); the calmodulin is a bovine brain product of Amano & Co
# Text: (1) Calmodulin: A calmodulin product manufactured by Amano & Co., which was isolated from the brain of bovine, and purified so as to be considered as a single substance with respect to SDS-page (polyacrylamide gel electrophoresis) method.
# (§1) (2) Calmodulin-dependent cyclic-AMP phosphodiesterase (EC 3.1.4.17): An enzyme substance isolated from the heart of bovine and purified partially by a method of modified version of the disclosure in H. C. Ho, T. S. Teo, et al.: "Biochim. Biophys. Acta", 429, 461 (1976).
# (§2) (3) 5'-Nucleotidase (EC 3.1.3.5): Grade IV substance (isolated from Crotalus adamanteus venom) manufactured by Sigma & Co.
# (§3) (4) Others: Remainder of the reagents used in the test were those of reagent grade chemicals manufactured by Wako Pure-Chemical Industries, Ltd.
# (§4) Calmodulin inhibitory activity of each of the test compounds was measured by a method of modified version of the disclosure in T. S. Teo and T. H. Wang: "J. Bio. Chem.", 248, 588 (1973).
# (2) Calmodulin: One unit thereof stimulates 0.015 activated unit of cyclic-AMP phosphodiesterase to 50% of the maximum activity of the enzyme.
# (§5) (3) 5'-Nucleotidase: One unit thereof hydrolyzes 1.0 micromole of inorganic phosphorus from adnosine 5'-monophosphate per minute at pH 9.0 at 37° C.
# (3) Reactions in the tests (1) Calmodulin-cyclic-AMP phosphodiesterase inhibitory activity:
# (§6) 40 mM of Imidazol, 20 mM of MgCl2, 20 mM of CaCl2, 0.008 […] of cyclic-AMP phosphodiesterase, 1.0 unit of calmodulin, 0.2 unit of 5'-nucleotidase and 1.0 ml of 10 mM-tris(hydroxymethyl)aminomethane/HCl buffer solution (pH 7.0) containing 0.5 mM of cyclic-AMP were mixed together, and reacted at 30° C. for 30 minutes. Each of the test compounds were dissolved in methanol or N,N-dimethylformamide as the solvent, provided that the quanitty of the solvent was not exceed 2% of the total amount of the mixture. After the reaction was completed, the reaction mixture was ice-cooled, and 0.5 ml each of aqueous solutions of 16.5%-trichloroacetic acid, 1%-thiourea, 3%-ammonium ferrous sulfate were respectively added to the reaction mixture. Further, 0.15 ml of 4.4%-ammonium molibdate solution was added to the mixture and the whole of the mixture was stirred, and was centrifuged at 3,000 r.p.m. for 10 minutes. Then, the centrifuged mixture was allowed to stand at a room temperature for 20 minutes. The OD660 nm (optical density at 660 nm) was measured.
# [2] = molecular target: T2, Calmodulin-dependent cyclic-AMP phosphodiesterase (EC 3.1.4.17) (Bos taurus, UniProt P14100); experiment: Pharmacological Test-2 (2): Cyclic-AMP phosphodiesterase inhibitory activity (EGTA in place of CaCl2); type: biochemical, bovine
# T2 construct: An enzyme substance isolated from the heart of bovine and purified partially; from tissue; host or cells: bovine heart
# T2 sequence (P14100 1-514 isoform P14100-2): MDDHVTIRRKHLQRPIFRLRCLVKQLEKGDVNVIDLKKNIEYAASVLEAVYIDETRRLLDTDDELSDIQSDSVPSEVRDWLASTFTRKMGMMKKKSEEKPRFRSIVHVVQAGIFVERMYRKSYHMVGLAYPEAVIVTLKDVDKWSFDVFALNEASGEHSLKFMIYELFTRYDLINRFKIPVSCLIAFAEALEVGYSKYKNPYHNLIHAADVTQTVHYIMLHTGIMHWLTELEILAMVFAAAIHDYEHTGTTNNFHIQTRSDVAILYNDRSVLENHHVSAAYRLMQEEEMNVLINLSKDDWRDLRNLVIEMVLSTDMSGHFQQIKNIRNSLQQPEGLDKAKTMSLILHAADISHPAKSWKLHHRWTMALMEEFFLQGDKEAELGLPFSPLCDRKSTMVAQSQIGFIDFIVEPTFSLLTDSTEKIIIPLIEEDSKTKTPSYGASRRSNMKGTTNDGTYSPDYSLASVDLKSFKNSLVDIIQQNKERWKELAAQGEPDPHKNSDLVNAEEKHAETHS
# Text: as §1, §2, §3, §4, §5, §6
# (2) Cyclic-AMP phosphodiesterase inhibitory activity:
# The reaction was conducted by a method similar to that described in (1) as mentioned above, except that 1 mM of EGTA [ethylene glycol-bis(β-aminoethyl ether)-N,N-tetraacetic acid] was used in place of 20 mM of CaCl2. The reaction was conducted for 3 hours.
# [3] = test system: SHR-rats (spontaneously hypertensive rats); experiment: Pharmacological Test-1: vasodilative effect, systolic blood pressure of SHR-rats by tail cuff method after oral administration; type: in vivo; conditions: 30 mg/kg p.o.
# Method: Vasodilative effects of the dihydropyridine derivatives of the present invention were determined by measuring the systolic blood pressures of test animals before and after the administration of test compound.
# Systolic blood pressures and heart beat of SHR-rats (spontaneously hypertensive rats) were determined by a "tail cuff method". Thus the test animal was placed in a thermostat chamber (Type: FR-12RS, manufactured by Isuze & Co.) and was warmed at 40° C. for 15 minutes so as to vasodilate the tail arteria, the systolic blood pressures were measured by an electro sphygmomanometer (Type: PE-300, manufactured by Narco-Biosystems, Inc.) and recorded by an ink-writing recorder (Type: RECTIHORIZ 8s, manufactured by San-Ei Instrument & Co.). The experiments were conducted under non-anesthetized and semi-confinement conditions. The test compound was orally administered forcedly by using a sonde for oral administration. The test compound was suspended in 0.15%-gum arabic powder aqueous solution so as to make the quantity of the test compound to 2.5 ml/kg. The test animal was not fasted, and the systolic blood pressures (mm-Hg) were measured before the administration (hereinafter referred to as "PRE") and after the administration (8, 24, 30, 48, 54 and 72 hours after the administration) of the test compound. The data of systolic blood pressure measured before the administration are shown in absolute value of mmHg, and the data measured after the administration are shown in the differences from the absolute values.
# [4] = 1 mM EGTA in place of CaCl2, 3 hours, read-out: Cyclic-AMP phosphodiesterase IC50 (converted)
Compound,"IC50 [2, 4]",also measured
"COC(=O)C1=C(C)NC(C)=C(C(=O)OCC/C=C/c2ccc(SC)cc2)C1c1cccc([N+](=O)[O-])c1 (stereo not drawn) [Test Compound 13, Methyl 4-(4-methylthiophenyl)-3(E)-butenyl 1,4-dihydro-2,6-dimethyl-4-(3-nitrophenyl)-pyridine-3,5-dicarboxylate]",0.452 µM,IC50 [1]: 0.122 µM
"COC(=O)C1=C(C)NC(C)=C(C(=O)OCC#Cc2ccc(O)cc2)C1c1cccc([N+](=O)[O-])c1 (stereo not drawn) [Test Compound 10, Methyl 3-(4-hydroxyphenyl)-2-propynyl 1,4-dihydro-2,6-dimetyyl-4-(3-nitrophenyl)-pyridine-3,5-dicarboxylate]",28.1 µM,IC50 [1]: 1.69 µM
COC(=O)C1=C(C)NC(C)=C(C(=O)OC/C=C/c2ccc(OC(C)=O)cc2)C1c1cccc([N+](=O)[O-])c1 (stereo not drawn) [Example 14],98.7 µM,–
"COC(=O)C1=C(C)NC(C)=C(C(=O)OC/C=C/c2ccc(O)cc2)C1c1ccccc1C (stereo not drawn) [Test Compound 16, Methyl 3-(4-hydroxyphenyl)-2(E)-propenyl 1,4-dihydro-2,6-dimethyl-4-(2-methylphenyl)-pyridine-3,5-dicarboxylate]",134 µM,–
"COC(=O)C1=C(C)NC(C)=C(C(=O)OC/C=C/c2ccccc2O)C1c1cccc([N+](=O)[O-])c1 (stereo not drawn) [Test Compound 11, Methyl 3-(2-hydroxyphenyl)-2(E)-propenyl 1,4-dihydro-2,6-dimethyl-4-(3-nitrophenyl)-pyridine-3,5-dicarboxylate]",26.9 µM,–
"COC(=O)C1=C(C)NC(C)=C(C(=O)OC/C=C/c2cccc(O)c2)C1c1ccccc1[N+](=O)[O-] (stereo not drawn) [Test Compound 17, Methyl 3-(3-hydroxyphenyl)-2(E)-propenyl 1,4-dihydro-2,6-dimethyl-4-(2-nitrophenyl)-pyridine-3,5-dicarboxylate]",53 µM,IC50 [1]: 1.94 µM
"COC(=O)C1=C(C)NC(C)=C(C(=O)OC/C=C/c2ccccc2)C1c1cccc([N+](=O)[O-])c1 (stereo not drawn) [Test Compound 2, Methyl 3-phenyl-2(E)-propenyl 1,4-dihydro-2,6-dimethyl-4-(3-nitrophenyl)pyridine-3,5-dicarboxylate]",> 223 µM,–
"COC(=O)C1=C(C)NC(C)=C(C(=O)OC/C=C/c2ccc(O)cc2)C1c1ccccc1 (stereo not drawn) [Test Compound 15, Methyl 3-(4-hydroxyphenyl)-2(E)-propenyl 1,4-dihydro-2,6-dimethyl-4-phenylpyridine-3,5-dicarboxylate]",76.3 µM,–
COC(=O)C1=C(C)NC(C)=C(C(=O)OC/C=C/c2ccc(O)cc2)C1c1ccccc1C(F)(F)F (stereo not drawn) [Test Compound 12],> 205 µM,–
"COC(=O)C1=C(C)NC(C)=C(C(=O)OC/C=C/c2ccc(O)c(Cl)c2)C1c1cccc([N+](=O)[O-])c1 (stereo not drawn) [Test Compound 9, Methyl 3-(3-chloro-4-hydroxyphenyl)-2(E)-propenyl 1,4-dihydro-2,6-dimetyyl-4-(3-nitrophenyl)pyridine-3,5-dicarboxylate]",> 200 µM,–
COC(=O)C1=C(C)NC(C)=C(C(=O)OC/C=C/c2ccc(OC)cc2)C1c1cccc([N+](=O)[O-])c1 (stereo not drawn) [Test Compound 8],> 209 µM,–
"COC(=O)C1=C(C)NC(C)=C(C(=O)OC/C=C/c2ccc(O)c(OC)c2)C1c1cccc([N+](=O)[O-])c1 (stereo not drawn) [Test Compound 7, Methyl 3-(3-methoxy-4-hydroxyphenyl)-2(E)-propenyl 1,4-dihydro-2,6-dimethyl-4-(3-nitrophenyl)pyridine-3,5-dicarboxylate]",174 µM,–
"COC(=O)C1=C(C)NC(C)=C(C(=O)OC/C=C/C=C/c2ccc(O)cc2)C1c1cccc([N+](=O)[O-])c1 (stereo not drawn) [Test Compound 3, Methyl 5-(4-hydroxyphenyl)-2(E),4(E)-pentadienyl 1,4-dihydro-2,6-dimethyl-4-(3-nitrophenyl)-pyridine-3,5-dicarboxylate]",> 204 µM,–
"methyl 4-[(1-ethoxy)ethoxy]cinnamyl 1,4-dihydro-2,6-dimethyl-4-(3-nitrophenyl)pyridine-3,5-dicarboxylate [Example 1]",–,"Blood pressure after the administration, difference from the PRE value ([3]; 24 hours): -41.0 mm-Hg; Blood pressure after the administration, difference from the PRE value ([3]; 30 hours): -52.0 mm-Hg; Blood pressure after the administration, difference from the PRE value ([3]; 48 hours): -26.5 mm-Hg; Blood pressure after the administration, difference from the PRE value ([3]; 54 hours): -19.8 mm-Hg; Blood pressure after the administration, difference from the PRE value ([3]; 72 hours): -12.5 mm-Hg"
"COC(=O)C1=C(C)NC(C)=C(C(=O)OC/C=C/c2ccc(O)cc2)C1c1cccc([N+](=O)[O-])c1 (stereo not drawn) [Test Compound 1, Methyl 3-(4-hydroxyphenyl)-2(E)-propenyl 1,4-dihydro-2,6-dimethyl-4-(3-nitrophenyl)pyridine-3,5-dicarboxylate]",129 µM,IC50 [1]: 8.83 µM
"COC(=O)C1=C(C)NC(C)=C(C(=O)OCCN(C)Cc2ccccc2)C1c1cccc([N+](=O)[O-])c1 (stereo not drawn) [Test Compound 18, Methyl 2-(N--methyl-N--benzylamino)ethyl 1,4-dihydro-2,6-dimetyyl-4-(3-nitrophenyl)pyridine-3,5-dicarboxylate, reference compound]",–,IC50 [2]: 27.1 µM
